Experiments:
[1] = Chemical stability in pharmaceutical solvents (weight % remaining in solution, LCMS); assay type: physicochemical
Description: (§1) Table 4 provides the chemical stability data in some pharmaceutical solvents, expressed as the weight percentage (% w/w) of the final fosfluconazole derivative produced and characterized in example 1 that remained in solution after a certain period of time. The test was carried out twice, and the remaining weight % was determined by Liquid Chromatography-Mass Spectrometry (LCMS).
as §1, with “5” for “4”, “solvents at 25° C.,” for “solvents,”, “2” for “1”
as §1, with “6” for “4”, “solvents at 25° C.,” for “solvents,”, “3” for “1”
as §1, with “7” for “4”, “4” for “1”
as §1, with “8” for “4”, “5” for “1”
as §1, with “9” for “4”, “6” for “1”
as §1, with “10” for “4”, “14” for “1”

[2] = Solubility of fosfluconazole derivatives in pharmaceutical solvents (Table 2); assay type: physicochemical; details: thermodynamic from solid
Description: The solubility determination method used was as follows: a suspension of 6 mg of the tested fosfluconazole derivative in 500 μl of the applicable pharmaceutical solvent was rotatively shaken for 24 hours at 800 rpm at 25° C. The saturated fosfluconazole derivative solution was filtered (0.45 μm) and 150 μl of the filtrate was diluted in dimethylsulfoxide (50 μl DMSO). This solution was assayed, each assay being carried out in three-fold, by measurement with Liquid Chromatography-Mass Spectrometry (LCMS, 1 μl and 10 μl injection). Standards were prepared by dissolving the corresponding fosfluconazole derivative in DMSO (1 mg/ml). To determine the solubility, four aliquots (0.5, 1, 2, 4 μl) of the standard solution were injected using the same LCMS conditions as for the above exemplary samples.

[3] = H2O/Kleptose HPB (60/40), 4 hours
[4] = H2O/Kleptose HPB (60/40), 1 day
[5] = H2O/Kleptose HPB (60/40), 2 days
[6] = H2O/Kleptose HPB (60/40), 7 days
[7] = H2O/Kleptose HPB (60/40), 14 days
[8] = aqueous with cosolvent or surfactant or cyclodextrin, H2O/Cremophor RH 40 (80/20), 25° C.
[9] = aqueous with cosolvent or surfactant or cyclodextrin, H2O/Kleptose HPB (60/40), 25° C.
[10] = aqueous with cosolvent or surfactant or cyclodextrin, H2O/Vitamin E TPGS (90/10), 25° C.
[11] = aqueous with cosolvent or surfactant or cyclodextrin, H2O/polysorbate 80 (80/20), 25° C.
[12] = oil or lipid, Miglyol 812, 25° C.
[13] = organic solvent or mixture, PEG 400, 25° C.
[14] = water (pH 2), aqueous buffer, H2O (pH = 2), 25° C.
[15] = water (pH 7), aqueous buffer, H2O (pH = 7), 25° C.
[16] = water (pH 10), aqueous buffer, H2O (pH = 10), 25° C.

Row | weight percentage that remained in solution ([1]; H2O (pH = 7), 4 hours) | weight percentage that remained in solution ([1]; H2O (pH = 7), 1 day) | weight percentage that remained in solution ([1]; H2O (pH = 7), 2 days) | weight percentage that remained in solution ([1]; H2O (pH = 7), 7 days) | weight percentage that remained in solution ([1]; H2O (pH = 7), 14 days) | weight percentage that remained in solution ([1]; H2O (pH = 10), 4 hours) | weight percentage that remained in solution ([1]; H2O (pH = 10), 1 day) | weight percentage that remained in solution ([1]; H2O (pH = 10), 2 days) | weight percentage that remained in solution ([1]; H2O (pH = 10), 7 days) | weight percentage that remained in solution ([1]; H2O (pH = 10), 14 days) | weight percentage that remained in solution [1, 3] | weight percentage that remained in solution [1, 4] | weight percentage that remained in solution [1, 5] | weight percentage that remained in solution [1, 6] | weight percentage that remained in solution [1, 7] | weight percentage that remained in solution ([1]; PEG 400, 4 hours) | weight percentage that remained in solution ([1]; PEG 400, 1 day) | weight percentage that remained in solution ([1]; PEG 400, 2 days) | weight percentage that remained in solution ([1]; PEG 400, 7 days) | weight percentage that remained in solution ([1]; PEG 400, 14 days) | SMILES | other results
1 | 99.6 % w/w | 99.6 % w/w | 54.7 % w/w | 99.6 % w/w | 99.6 % w/w | 99.8 % w/w | 100.0 % w/w | 99.7 % w/w | 100.0 % w/w | 100.0 % w/w | 99.3 % w/w | 98.8 % w/w | 98.8 % w/w | 98.6 % w/w | 99.1 % w/w | 99.8 % w/w | 100.0 % w/w | 99.8 % w/w | 99.9 % w/w | 100.0 % w/w | C[N+](C)(C)CCOP(=O)([O-])OC(Cn1cncn1)(Cn1cncn1)c1ccc(F)cc1F [Example 1, 2-(2,4-difluorophenyl)-1,3-di(1H-1,2,4-triazol-1-yl)propan-2-yl 2-(trimethylammonio)-ethyl phosphate] | weight percentage that remained in solution ([1]; H2O (pH = 2), 4 hours): 99.9 % w/w; weight percentage that remained in solution ([1]; H2O (pH = 2), 1 day): 100.0 % w/w; weight percentage that remained in solution ([1]; H2O (pH = 2), 2 days): 99.4 % w/w; weight percentage that remained in solution ([1]; H2O (pH = 2), 7 days): 99.4 % w/w; weight percentage that remained in solution ([1]; H2O (pH = 2), 14 days): 99.2 % w/w; solubility at 24 h [2, 8]: > 10000 µg/mL; solubility at 24 h [2, 9]: 4200 µg/mL; solubility at 24 h [2, 10]: 7400 µg/mL; solubility at 24 h [2, 11]: 8300 µg/mL; solubility at 24 h [2, 12]: 400 µg/mL; solubility at 24 h [2, 13]: > 10000 µg/mL; solubility at 24 h [2, 14]: > 10000 µg/mL; solubility at 24 h [2, 15]: 6800 µg/mL; solubility at 24 h [2, 16]: 7500 µg/mL
2 | 97.8 % w/w | 97.7 % w/w | 98.0 % w/w | 97.8 % w/w | 97.9 % w/w | 94.6 % w/w | 98.0 % w/w | 96.8 % w/w | 96.8 % w/w | 99.2 % w/w | 98.0 % w/w | 98.0 % w/w | 98.2 % w/w | 97.7 % w/w | 98.0 % w/w | 97.7 % w/w | 97.9 % w/w | 98.1 % w/w | 98.0 % w/w | 98.7 % w/w | CCCCCCCCCC(=O)OCCOP(=O)([O-])OC(Cn1cncn1)(Cn1cncn1)c1ccc(F)cc1F.[Na+] [Example 2, sodium 2-(decanoyloxy)ethyl 2-(2,4-difluorophenyl)-1,3-di(1H-1,2,4-triazol-1-yl)propan-2-yl phosphate] | weight percentage that remained in solution ([1]; H2O (pH = 2), 4 hours): 97.8 % w/w; weight percentage that remained in solution ([1]; H2O (pH = 2), 1 day): 97.7 % w/w; weight percentage that remained in solution ([1]; H2O (pH = 2), 2 days): 96.8 % w/w; weight percentage that remained in solution ([1]; H2O (pH = 2), 7 days): 96.7 % w/w; weight percentage that remained in solution ([1]; H2O (pH = 2), 14 days): 100.0 % w/w; solubility at 24 h [2, 8]: > 10000 µg/mL; solubility at 24 h [2, 9]: > 10000 µg/mL; solubility at 24 h [2, 10]: > 10000 µg/mL; solubility at 24 h [2, 11]: > 10000 µg/mL; solubility at 24 h [2, 12]: 5000 µg/mL; solubility at 24 h [2, 13]: > 10000 µg/mL; solubility at 24 h [2, 14]: 6900 µg/mL; solubility at 24 h [2, 15]: > 10000 µg/mL; solubility at 24 h [2, 16]: > 10000 µg/mL
3 | 94.8 % w/w | 94.7 % w/w | 95.0 % w/w | 94.8 % w/w | 95.1 % w/w | 94.8 % w/w | 94.8 % w/w | 95.0 % w/w | 95.0 % w/w | 95.2 % w/w | 95.0 % w/w | 94.9 % w/w | 94.7 % w/w | 95.0 % w/w | 95.2 % w/w | 95.0 % w/w | 94.9 % w/w | 95.0 % w/w | 95.0 % w/w | 95.1 % w/w | CCCCCCCCCOCCOP(=O)([O-])OC(Cn1cncn1)(Cn1cncn1)c1ccc(F)cc1F.[Na+] [Example 3, sodium 2-(2,4-difluorophenyl)-1,3-di(1H-1,2,4-triazol-1-yl)propan-2-yl 2-(nonyloxy)ethyl phosphate] | weight percentage that remained in solution ([1]; H2O (pH = 2), 4 hours): 94.8 % w/w; weight percentage that remained in solution ([1]; H2O (pH = 2), 1 day): 94.6 % w/w; weight percentage that remained in solution ([1]; H2O (pH = 2), 2 days): 95.0 % w/w; weight percentage that remained in solution ([1]; H2O (pH = 2), 7 days): 95.0 % w/w; weight percentage that remained in solution ([1]; H2O (pH = 2), 14 days): 95.0 % w/w; solubility at 24 h [2, 8]: > 10000 µg/mL; solubility at 24 h [2, 9]: > 10000 µg/mL; solubility at 24 h [2, 10]: > 10000 µg/mL; solubility at 24 h [2, 11]: > 10000 µg/mL; solubility at 24 h [2, 12]: 2600 µg/mL; solubility at 24 h [2, 13]: > 10000 µg/mL; solubility at 24 h [2, 14]: > 10000 µg/mL; solubility at 24 h [2, 15]: > 10000 µg/mL; solubility at 24 h [2, 16]: > 10000 µg/mL
4 | 95.2 % w/w | 95.3 % w/w | 95.5 % w/w | 95.6 % w/w | 95.4 % w/w | 45.5 % w/w | 44.8 % w/w | 41.3 % w/w | 39.4 % w/w | 37.1 % w/w | 95.1 % w/w | 95.3 % w/w | 95.3 % w/w | 94.2 % w/w | 87.7 % w/w | 96.8 % w/w | 95.9 % w/w | 96.7 % w/w | 96.6 % w/w | 97.3 % w/w | CCCCCCCCCC(=O)OCC(COP(=O)([O-])OC(Cn1cncn1)(Cn1cncn1)c1ccc(F)cc1F)OC(=O)CCCCCCCCC.[Na+] (centres unmarked) [Example 4, sodium 2,3-bis(decanoyloxy)propyl 2-(2,4-difluorophenyl)-1,3-di(1H-1,2,4-triazol-1-yl)propan-2-yl phosphate] | solubility at 24 h [2, 8]: > 10000 µg/mL; solubility at 24 h [2, 9]: > 10000 µg/mL; solubility at 24 h [2, 10]: > 10000 µg/mL; solubility at 24 h [2, 11]: > 10000 µg/mL; solubility at 24 h [2, 12]: > 10000 µg/mL; solubility at 24 h [2, 13]: 9000 µg/mL; solubility at 24 h [2, 14]: < 1000 µg/mL; solubility at 24 h [2, 15]: 9900 µg/mL; solubility at 24 h [2, 16]: > 10000 µg/mL

Source: patent publication US20120010173A1 (SEPS PHARMA N.V., priority 2009, published 2012)
